From patent US20220054387A1, “COMPOSITION COMPRISING AT LEAST ONE GLYCOSYLATED FLAVONOID AND ITS USE IN COSMETICS OR DERMATOLOGY” (PURALLY, priority 2020, published 2022)

How the values were obtained:
IL-31 = IL-31 release by keratinocytes exposed to benzo[a]pyrene and blue light (ELISA); format: cell-based, human
Procedure: The cells used in this study are primary cultures of normal human keratinocytes (NHKs) extracted after skin surgery of a donor.
They were cultured in a complete KSFM environment: Keratinocyte-SFM (17005-31, Gibco) with L-Glutamine, supplemented with a recombinant human epidermal growth factor (EGFhr, 10450-013, Gibco), extract of bovine pituitary gland (BPE, 13028-014, Gibco) and 1% of streptomycin penicillin (15070-063, Gibco) at 37° C. in 5% CO2 atmosphere up until 80% confluence.
The keratinocytes cultured according to Example 1 are exposed either to benzo[a]pyrene (B[a]P) at 20 μμM, or to blue light (450 nm) at 40 J/cm^2 or to the combination of both at the same doses. A myricitrin treatment with amounts ranging from 10 μμM to 50 μμM is applied to cells that have previously received the B[a]P and blue light combination.
After 24 hours' treatment, an assay of the interleukin 31 (IL-31) released by the cells is performed, via an immunoassay kit (ELISA.) The IL-31 assay was performed with the human IL-31 ELISA MAX™ Deluxe Set (445704, Biolegend.)

[1] = test system: normal human keratinocytes; assay: Keratinocyte viability assay (XTT); format: cell-based; details: myricitrin 0.21 to 50 μμM, 24 hours
Procedure: The cells used in this study are primary cultures of normal human keratinocytes (NHKs) extracted after skin surgery of a donor. They were cultured in a complete KSFM environment: Keratinocyte-SFM (17005-31, Gibco) with L-Glutamine, supplemented with a recombinant human epidermal growth factor (EGFhr, 10450-013, Gibco), extract of bovine pituitary gland (BPE, 13028-014, Gibco) and 1% of streptomycin penicillin (15070-063, Gibco) at 37° C. in 5% CO2 atmosphere up until 80% confluence. On D0, normal human keratinocytes are incubated in 96-well plates in a culture medium. The cells are left to stabilize for 24 hours at 37° C. in 5% CO2 atmosphere, as described in Example 1. […] The NHK viability was assessed using a Cell Proliferation Kit II (XTT) (11465015001, Roche) in accordance with the manufacturer's instructions. The XTT system, a colorimetric method, is a test used to quantify mitochondrial activity. […] The formazan derivate is measured by spectrophotometry (at 450 nm with 650 nm of reference.) For each condition, optical density data averages (OD, absorbance) are calculated. The viability of the treated cells is expressed as a percentage of untreated control batch: a treatment that reduces the viability of the cells to below the comparative limit of 80% of mitochondrial activity in the untreated control batch, is considered cytotoxic for the cells. […]

SMILES: c1ccc2c(c1)cc1ccc3cccc4ccc2c1c34 [benzo[a]pyrene, reference compound]
- increase in IL-31 by the keratinocytes (IL-31; benzo[a]pyrene 20 μμM combined with blue light (450 nm) 40 J/cm^2): +111%

SMILES: C[C@@H]1O[C@@H](Oc2c(-c3cc(O)c(O)c(O)c3)oc3cc(O)cc(O)c3c2=O)[C@H](O)[C@H](O)[C@H]1O [myricitrin, 5,7-dihydroxy-3-[(2S,3R,4R,5R,6S)-3,4,5-trihydroxy-6-methyloxan-2-yl]oxy-2-(3,4,5-trihydroxyphenyl)chromen-4-one]
- toxic effect on keratinocytes (cell viability, XTT) [1]: no toxic effect
- decrease in the production of IL-31 (IL-31; myricitrin as of 20 μM, cells pre-treated with 20 μM of B[a]P and 40 J/cm^2 of blue light, 24 hours' treatment): −100%
